This is an account of results in patent US8486945B2, “Heterocyclic inhibitors of an Hh-signal cascade, medicinal compositions based thereon and methods for treating diseases caused by the aberrant activity of an Hh-signal system” (priority 2007, dated 2013).

One series relates to Hh-signalling cascade. The experiment in a line: Inhibition of SHh-induced alkaline phosphatase in C3H10T1/2 cells (Hh-signalling cascade inhibition). In kind it is cell-based. An excerpt:
C3H10T1/2 Cells were used for identification of inhibitors of SHh-protein signaling cascade. SHh-protein activates C3H10T1/2 cells, that leads to their osteogenic differentiation [1) Kinto N., Iwamoto M., Enomoto-Iwamoto M., Noji S., Ohuchi H., Yoshioka H., Kataoka H., Wada Y., Yuhao G., Takahashi H. E., Yoshiki S., Yamaguchi A. Fibroblasts expressing Sonic hedgehog induce osteoblast differentiation and ectopic bone formation. FEBS Lett. 1997; 404(2-3): 319-23. 2) Spinella-Jaegle S., Rawadi G., Kawai S., Gallea S., Faucheu C., Mollat P., Courtois B., Bergaud B., Ramez V., Blanchet A. M., Adelmant G., Baron R., Roman-Roman S. Sonic hedgehog increases the commitment of pluripotent mesenchymal cells into the osteoblastic lineage and abolishes adipocytic differentiation. J. Cell Sci. 2001; 114(Pt 11): 2085-94] and, in particular, to expression enhancement of alkaline phosphatase enzyme.
The cells were cultivated in DMEM medium with 10% embryonal calfish serum in incubator at 37° C., 100% humidity and 5% CO2 content. The cells were placed in 384-well plates and left for night. On the next day the tested compounds in concentration of 10 μM were added to the cells, incubated for 30 min, then recombinant (R & D Systems, USA) SHh protein in concentration of 0.3 μg/ml was added and incubation was continued for 3 days. Cells with DMSO instead of a test compound and cells without SHh protein were used as test control. For determination of the cell alkaline phosphatase activity the cells were lysed in the buffer containing 0.2% Triton-X100, lisates were incubated together with proluminescent substrate CSPD (Applied Biosystems, USA) and the resultant luminescence was measured using reader VICTOR^2V (PerkinElmer, USA).
The ability of the compounds to inhibit Hh-signalling cascade was determined using C3H10T1/2 cells in 384-well plates as described in example 1. The compounds were added in triplicates in various concentrations, prepared by multiple dilution of starting solutions (concentration dependences of cell alkaline phosphatase inhibition induced by the addition of tested compounds are shown in FIG. 1). Activity of the compounds was characterized by their concentrations produced half maximal inhibition of stimulation of cell alkaline phosphatase SHh (IC50).

[1] abbreviates: Mus musculus, C3H 10T1/2, half maximal inhibition of SHh (0.3 μg/ml) stimulation of cell alkaline phosphatase.
Setting [2] is: half maximal inhibition of SHh (0.3 μg/ml) stimulation of cell alkaline phosphatase.

One may read the IC50 as the concentration at which inhibition is half-maximal. Lower therefore signals inhibition by little substance. As usually defined, the melting point is the temperature, or range, at which the solid turns liquid. `CCOc1ccc(NC(=O)c2ccnc(N3CCC(C(=O)Nc4cc(C)cc(C)c4)CC3)c2)cc1` [VI-1003, 3,4,5,6-Tetrahydro-2H-[1,2′]bipyridinyl-4,4′-carboxylic acid 4-[(3,5-dimethylphenyl)amide] 4′-[(4-ethoxyphenyl)amide]] came in with a melting point of 250 to 252 °C. The IC50 in the series on Hh-signalling cascade (setting [1]) was less than 5 µM.
`Cc1nn(CC(=O)N2CCN(c3ccccc3)CC2)c(=O)c2nn(-c3ccccc3)c(C)c12` [I-1003, 2-Phenyl-3,4-dimethyl-6-{2-[4-phenylpiperazin-1-yl]-2-oxoethyl}-2,6-dihydro-7H-pyrazolo[3,4-c]pyridazin-7-one] showed a melting point of 252 to 254 °C. Moreover, the IC50 in the series on Hh-signalling cascade (setting [1]) is less than 0.5 µM.
Compound `CCOc1ccc(NC(=O)c2ccnc(N3CCC(C(=O)NCCCc4ccccc4)CC3)c2)cc1` [VI-1001, 3,4,5,6-Tetrahydro-2H-[1,2]bipyridinyl-4,4′-carboxylic acid 4′-[(4-ethoxyphenyl)amide] 4-[(3-phenylpropyl)amide]] registered a melting point of 203 to 205 °C. The IC50 in the series on Hh-signalling cascade (setting [1]) was less than 0.5 µM.
For the compound `O=C(c1cc2sccc2n1Cc1ccc(F)cc1)N1CCC(C(=O)N2CCOCC2)CC1` [V-1001, [4-(4-Fluorobenzyl)-4H-thieno[3,2-b]pyrrol-5-yl][4-(morpholine-4-carbonyl)piperidin-1-yl]methanone], the melting point was 120 to 122 °C. For the same compound, the IC50 with Hh-signalling cascade (setting [1]) is less than 0.5 µM.
On to `Cc1cccc(N2CCN(C(=O)C(C)n3nc(C)c4c(C)n(-c5ccccc5)nc4c3=O)CC2)c1C` (stereo not drawn) [I-1011, 2-Phenyl-3,4-dimethyl-6-{1-methyl-2-[4-(2,3-dimethylphenyl)piperazin-1-yl]-2-oxoethyl}-2,6-dihydro-7H-pyrazolo[3,4-d]pyridazin-7-one], for which the melting point lay within 136 to 138 °C. In addition, in the series on Hh-signalling cascade (setting [1]), the IC50 was less than 0.5 µM.
On the same counts, the results for `CCOc1ccc(NC(=O)c2ccnc(N3CCC(C(=O)Nc4cccc(SC)c4)CC3)c2)cc1` [VI-1004] are 200 to 202 °C and less than 5 µM.
In turn, `CCOc1ccc(NC(=O)c2ccnc(N3CCC(C(=O)Nc4ccc(C(C)C)cc4)CC3)c2)cc1` [VI-1005, 3,4,5,6-Tetrahydro-2H-[1,2′]bipyridinyl-4,4′-carboxylic acid 4′-[(4-ethoxyphenyl)amide] 4-[(4-isopropylphenyl)amide]] gave a melting point of 243 to 245 °C. The compound also gave an IC50 in the series with Hh-signalling cascade (setting [1]) of less than 5 µM.
On to `Cc1nn(CCCC(=O)Nc2ccc(C(C)C)cc2)c(=O)c2nn(-c3ccccc3)c(C)c12` [I-1026, 4-(2-Phenyl-3,4-dimethyl-7-oxo-2,7-dihydro-6H-pyrazolo[3,4-d]pyridazin-6-yl)-N-[(1-methylethyl)phenyl]butanamide], for which the IC50 in the series on Hh-signalling cascade (setting [1]) is less than 50 µM.
`CN1CCN(C(=O)C2CCN(C(=O)c3cc4sccc4n3Cc3ccccc3F)CC2)CC1` [V-1051, [4-(2-Fluorobenzyl)-4H-thieno[3,2-b]pyrrol-5-yl]-[4-(4-methylpiperazine-1-carbonyl)piperidin-1-yl]methanone]: the concentration for half-maximal inhibition (IC50) in the series on Hh-signalling cascade (setting [1]) is less than 0.5 µM.
In the series with Hh-signalling cascade (setting [1]), `Cc1nc(-c2ccccc2)sc1C(=O)Nc1cccc(-c2cn3ccccc3n2)c1` [III-1030, 4-Methyl-2-phenylthiazol-5-carboxylic acid [3-(imidazo[1,2-a]pyridin-2-yl)phenyl]amide] returned an IC50 of less than 0.5 µM.
Regarding `Cc1nn(CCC(=O)NCc2ccco2)c(=O)c2nn(-c3ccccc3)c(C)c12` [I-1020, 3-(2-Phenyl-3,4-dimethyl-7-oxo-2,7-dihydro-6H-pyrazolo[3,4-c]pyridazin-6-yl)-N-(furan-2-ylmethyl)propanamide], the IC50 with Hh-signalling cascade (setting [1]) was less than 5 µM.
On the same count and under the same terms, the value for `O=C(Nc1cccc(-c2cn3ccccc3n2)c1)c1ccc(F)cc1` [III-1015, 4-Fluoro-N-(3-(imidazo[1,2-a]pyridin-2-yl)phenyl)benzamide] was less than 0.5 µM; that for `CCC(=O)Nc1ccc(-c2cn3ccccc3n2)cc1` [III-1002, N-(4-(Imidazo[1,2-a]pyridin-2-yl)phenyl)propionamide] was less than 50 µM; that for `CCOCCCNC(=O)C1CCN(C(=O)c2cc3sccc3n2Cc2ccc(F)cc2)CC1` [V-1039, 1-[4-(4-Fluorobenzyl)-4H-thieno[3,2-b]pyrrole-5-carbonyl]piperidine-4-carboxylic acid (3-ethoxypropyl)amide] was less than 0.5 µM.
`O=C(Nc1ccc(-c2cn3ccccc3n2)cc1)c1ccc(Cl)cc1` [III-1005, 4-Chloro-N-(4-(imidazo[1,2-a]pyridin-2-yl)phenyl)benzamide] gave an IC50 with Hh-signalling cascade (setting [1]) of less than 5 µM.
Take `O=C(c1cc2sccc2n1Cc1ccc(Cl)cc1)N1CCC(C(=O)N2CCCC2)CC1` [V-1044, 1-[4-(4-Chlorobenzyl)-4H-thieno[3,2-b]pyrrole-5-carbonyl]piperidine-4-carboxylic acid tetramethylenamide]: in the series with Hh-signalling cascade (setting [2]), the IC50 is less than 0.5 µM.
With `O=C(c1cc2sccc2n1Cc1ccc(Cl)cc1)N1CCC(C(=O)N2CCCC2)CC1` [V-1027, [4-(4-Chlorobenzyl)-4H-thieno[3,2-b]pyrrol-5-yl]-[4-(pyrrolidin-1-carbonyl)piperidin-1-yl]methanone], the concentration for half-maximal inhibition (IC50) in the series with Hh-signalling cascade (setting [2]) was less than 5 µM.
In the series on Hh-signalling cascade (setting [1]), `CCN1CCCC1CNC(=O)C1CCN(C(=O)c2cc3sccc3n2Cc2ccc(F)cc2)CC1` (stereo not drawn) [V-1038, 1-[4-(4-Fluorobenzyl)-4H-thieno[3,2-b]pyrrole-5-carbonyl]piperidine-4-carboxylic acid [(1-ethylpyrrolidin-2-yl)methyl]amide] came in with an IC50 of less than 0.5 µM.
`Cc1nn(CCC(=O)N2CCOCC2)c(=O)c2nn(-c3ccccc3)c(C)c12` [I-1021, 2-Phenyl-3,4-dimethyl-6-(3-(morpholin-4-yl)-3-oxopropyl)-2,6-dihydro-7H-pyrazolo[3,4-c]pyridazin-7-one] came in with a 50% inhibitory concentration (IC50) with Hh-signalling cascade (setting [1]) of less than 5 µM.
In the series with Hh-signalling cascade (setting [1]), `COc1ccc(C(=O)Nc2cccc(-c3cn4c(C)cccc4n3)c2)cc1` [III-1019, 4-Methoxy-N-[3-(5-methylimidazo[1,2-a]pyridin-2-yl)phenyl]benzamide] came in with an IC50 of less than 0.5 µM.
On the same count and under the same terms, the same measure for `O=C(Nc1ccc(-c2cn3ccccc3n2)cc1)c1cccs1` [III-1004, N-(4-(Imidazo[1,2-a]pyridin-2-yl)phenyl)thiophen-2-carboxamide]: less than 5 µM; for `O=C(NCc1cccnc1)C1CCN(C(=O)c2cc3sccc3n2Cc2ccc(F)cc2)CC1` [V-1031]: less than 5 µM.
Regarding `Cc1nn(CCC(=O)NCc2cccs2)c(=O)c2nn(-c3ccccc3)c(C)c12` [I-1022, 3-(2-Phenyl-3,4-dimethyl-7-oxo-2,7-dihydro-6H-pyrazolo[3,4-c]pyridazin-6-yl)-N-(thien-2-ylmethyl)propanamide], in the series on Hh-signalling cascade (setting [1]), the IC50 is less than 5 µM.
In the series with Hh-signalling cascade (setting [1]), `CC(=O)N1CCc2c(sc(NC(=O)Cc3ccccc3)c2-c2nc3ccccc3s2)C1` [VIII-1017, N-(6-Acetyl-3-benzo[d]thiazol-2-yl-4,5,6,7-tetrahydrothieno[2,3-c]pyridin-2-yl)-2-phenylacetamide] displayed an IC50 of less than 50 µM.
`Cc1ccc(NC(=O)C2CCN(C(=O)c3cc4sccc4n3Cc3ccc(F)cc3)CC2)cc1C` [V-1035, 1-[4-(4-Fluorobenzyl)-4H-thieno[3,2-b]pyrrole-5-carbonyl]piperidine-4-carboxylic acid (3,4-dimethylphenyl)amide]: the IC50 in the series with Hh-signalling cascade (setting [1]) is less than 0.5 µM.
In the series with Hh-signalling cascade (setting [1]), `CN1CCN(C(=O)C2CCN(C(=O)c3cc4sccc4n3Cc3ccc4c(c3)OCO4)CC2)CC1` [V-1055, [4-(3,4-Methylendioxybenzyl)-4H-thieno[3,2-b]pyrrol-5-yl]-[4-(4-methylpiperazine-1-carbonyl)piperidin-1-yl]methanone] had an IC50 of less than 0.5 µM.
